Counter-ions that a name gives are not always drawn.
Tests used:
[1] = tested on: ENR+CD organoids (ISC to Paneth cell differentiation); test: Primary screen: basal (non-stimulated) lysozyme secretion LYZ.NS, 2.5-D 384-well ENR+CD organoid differentiation; format: cell-based, mouse; settings: primary screen; for Z.LYZ.NS: standard z score
Excerpt: (§1) High-throughput screening.

[2] = tested on: ENR+CD organoids (ISC to Paneth cell differentiation); test: Primary screen: CCh-stimulated lysozyme secretion LYZ.S, 2.5-D 384-well ENR+CD organoid differentiation; format: cell-based, mouse; settings: primary screen
Excerpt: as §1

ENR+CD organoids = test: Primary screen: ATP (CellTiter-Glo 3D, CTG) cell number/viability, 2.5-D 384-well ENR+CD organoids; settings: primary screen; for Z.CTG: standard z score;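 as to all read-outs here: compounds given at plating and again on day 3 over a 6-day differentiation from ENR+CV stem-cell-enriched precursors, ATP measured on day 6, plate median as control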
[3] = dose 0.08 uM, FC vs plate median
[4] = dose 0.40 uM, FC vs plate median
[5] = dose 2.00 uM, FC vs plate median
[6] = dose 10.00 uM, FC vs plate median
[7] = dose 0.08 uM, FC relative to plate median
[8] = dose 0.40 uM, FC relative to plate median
[9] = dose 2.00 uM, FC relative to plate median
[10] = dose 10.00 uM, FC relative to plate median

| SMILES | Dose.FC.LYZ.NS ([1]; dose 0.08 uM) [log2 fold change] | Z.LYZ.NS (standard z score) ([1]; dose 0.08 uM) | Dose.FC.LYZ.NS ([1]; dose 0.40 uM) [log2 fold change] | Z.LYZ.NS (standard z score) ([1]; dose 0.40 uM) | Dose.FC.LYZ.NS ([1]; dose 2.00 uM) [log2 fold change] | Z.LYZ.NS (standard z score) ([1]; dose 2.00 uM) | Dose.FC.LYZ.NS ([1]; dose 10.00 uM) [log2 fold change] | Z.LYZ.NS (standard z score) ([1]; dose 10.00 uM) | Dose.FC.LYZ.S ([2]; dose 0.08 uM) [log2 fold change] | Dose.FC.LYZ.S ([2]; dose 0.40 uM) [log2 fold change] | Dose.FC.LYZ.S ([2]; dose 2.00 uM) [log2 fold change] | Dose.FC.LYZ.S ([2]; dose 10.00 uM) [log2 fold change] | Dose.FC.CTG (ENR+CD organoids; dose 0.08 uM) [log2 fold change] | Dose.FC.CTG (ENR+CD organoids; dose 0.40 uM) [log2 fold change] | Dose.FC.CTG (ENR+CD organoids; dose 2.00 uM) [log2 fold change] | Dose.FC.CTG (ENR+CD organoids; dose 10.00 uM) [log2 fold change] | Z.LYZ.NS ([1]; dose 0.08 uM) | Z.LYZ.NS ([1]; dose 0.40 uM) | Z.LYZ.NS ([1]; dose 2.00 uM) | Z.LYZ.NS ([1]; dose 10.00 uM) | other results |
| --- | --- | --- | --- | --- | --- | --- | --- | --- | --- | --- | --- | --- | --- | --- | --- | --- | --- | --- | --- | --- | --- |
| O=C(/C=C/c1cccc(S(=O)(=O)Nc2ccccc2)c1)NO [Belinostat (PXD101)] | 0.008 | 0.067 | 0.129 | 1.125 | −0.173 | −1.510 | −0.196 | −1.709 | −0.059 | 0.042 | −0.264 | −0.327 | −0.227 | −0.055 | −0.782 | −1.122 | – | – | – | – | Z.CTG (standard z score) (ENR+CD organoids; dose 0.08 uM): −0.543; Z.CTG (standard z score) (ENR+CD organoids; dose 0.40 uM): −0.133; Z.CTG (standard z score) (ENR+CD organoids; dose 2.00 uM): −1.868; Z.CTG (standard z score) (ENR+CD organoids; dose 10.00 uM): −2.679 |
| Cl.Cl.NC1(c2ccc(-c3nc4ccn5c(=O)[nH]nc5c4cc3-c3ccccc3)cc2)CCC1 [MK-2206 2HCl] | – | – | – | – | – | – | – | – | – | – | – | – | – | – | – | – | 0.205 | −0.550 | −1.587 | −2.058 | Dose.FC.LYZ.NS [1, 3]: 0.024 log2 fold change; Dose.FC.LYZ.NS [1, 4]: −0.063 log2 fold change; Dose.FC.LYZ.NS [1, 5]: −0.182 log2 fold change; Dose.FC.LYZ.NS [1, 6]: −0.236 log2 fold change; Dose.FC.LYZ.S [2, 3]: 0.071 log2 fold change; Dose.FC.LYZ.S [2, 4]: 0.083 log2 fold change; Dose.FC.LYZ.S [2, 5]: −0.239 log2 fold change; Dose.FC.LYZ.S [2, 6]: −0.367 log2 fold change; Z.CTG (ENR+CD organoids; dose 0.08 uM): 0.169; Z.CTG (ENR+CD organoids; dose 0.40 uM): −0.055; Z.CTG (ENR+CD organoids; dose 2.00 uM): −0.425; Z.CTG (ENR+CD organoids; dose 10.00 uM): −1.290; Dose.FC.CTG (ENR+CD organoids; [3]): 0.071 log2 fold change; Dose.FC.CTG (ENR+CD organoids; [4]): −0.023 log2 fold change; Dose.FC.CTG (ENR+CD organoids; [5]): −0.178 log2 fold change; Dose.FC.CTG (ENR+CD organoids; [6]): −0.540 log2 fold change |
| CNC(=C[N+](=O)[O-])NCCSCc1ccc(CN(C)C)o1 [Ranitidine] | – | – | – | – | – | – | – | – | – | – | – | – | – | – | – | – | −0.234 | 0.095 | −0.389 | −0.401 | Dose.FC.LYZ.NS [1, 7]: −0.027 log2 fold change; Dose.FC.LYZ.NS [1, 8]: 0.011 log2 fold change; Dose.FC.LYZ.NS [1, 9]: −0.045 log2 fold change; Dose.FC.LYZ.NS [1, 10]: −0.046 log2 fold change; Dose.FC.LYZ.S [2, 7]: −0.020 log2 fold change; Dose.FC.LYZ.S [2, 8]: 0.071 log2 fold change; Dose.FC.LYZ.S [2, 9]: −0.040 log2 fold change; Dose.FC.LYZ.S [2, 10]: −0.043 log2 fold change; Dose.FC.CTG (ENR+CD organoids; [7]): −0.051 log2 fold change; Dose.FC.CTG (ENR+CD organoids; [8]): 0.155 log2 fold change; Dose.FC.CTG (ENR+CD organoids; [9]): −0.069 log2 fold change; Dose.FC.CTG (ENR+CD organoids; [10]): −0.262 log2 fold change |
| NC(=O)c1cccc(-c2cccc(OC(=O)NC3CCCCC3)c2)c1 [URB597] | 0.087 | 0.754 | −0.001 | −0.007 | 0.035 | 0.307 | −0.014 | −0.123 | 0.141 | 0.021 | 0.017 | −0.044 | 0.314 | 0.065 | 0.137 | −0.021 | – | – | – | – | – |
| O=C1CC[C@@]2(O)[C@H]3Cc4ccc(O)c5c4[C@@]2(CCN3CC2CC2)[C@H]1O5 [Naltrexone HCl] | – | – | – | – | – | – | – | – | – | – | – | – | – | – | – | – | −0.067 | −0.043 | 0.166 | 0.302 | Dose.FC.LYZ.NS [1, 3]: −0.008 log2 fold change; Dose.FC.LYZ.NS [1, 4]: −0.005 log2 fold change; Dose.FC.LYZ.NS [1, 5]: 0.019 log2 fold change; Dose.FC.LYZ.NS [1, 6]: 0.035 log2 fold change; Dose.FC.LYZ.S [2, 3]: 0.002 log2 fold change; Dose.FC.LYZ.S [2, 4]: 0.025 log2 fold change; Dose.FC.LYZ.S [2, 5]: 0.025 log2 fold change; Dose.FC.LYZ.S [2, 6]: 0.045 log2 fold change; Dose.FC.CTG (ENR+CD organoids; [3]): 0.089 log2 fold change; Dose.FC.CTG (ENR+CD organoids; [4]): 0.070 log2 fold change; Dose.FC.CTG (ENR+CD organoids; [5]): 0.004 log2 fold change |
